Assay results: patent publication US20230055705A1, “SUBSTITUTED THIOPHENE CARBOXAMIDES AND DERIVATIVES THEREOF” (Bayer Aktiengesellschaft, priority 2019, published 2023)

How the values were obtained:
[1] = tested on: salicylate responsive promoter sequence of the PR1 (pathogenesis-related protein I) gene (AT2G14610); assay: Induction of defense gene expression in Arabidopsis thaliana (PR1 promoter-GFP reporter plants); format: in vivo; conditions: Arabidopsis thaliana, 72 h, 3rd day after spraying, mock treated leaves set as 1.00, read-out: relative fluorescence value; for fold induction at 75 ppm: 75 ppm of compound
In short: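 Transgenic A. thaliana carrying GFP under the salicylate-responsive PR1 promoter, grown five days, then sprayed with compounds. Whole-plant fluorescence imaged and quantified on day 3 post-spray, expressed relative to mock-treated leaf background set at 1.00.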

Alternaria alternata = Alternaria alternata in vitro cell test; format: cell-based; conditions: 120 h, 20 ppm of active ingredient, 5 days incubation, read-out: efficacy (inhibition of fungal growth)
Experimental: (§1) • Solvent: DMSO • Culture medium: 14.6 g anhydrous D-glucose (VWR), 7.1 g Mycological Peptone (Oxoid), 1.4 g granulated Yeast Extract (Merck), QSP 1 liter • Inoculum: spores suspension
(§2) Fungicides were solubilized in DMSO and the solution used to prepare the required range of concentrations. The final concentration of DMSO used in the assay was ≤[…]1%.
A spore suspension of A. alternata was prepared and diluted to the desired spore density.
(§3) Fungicides were evaluated for their ability to inhibit spore germination and mycelium growth in liquid culture assay. The compounds were added in the desired concentration to the culture medium with spores. After 5 days incubation, fungi-toxicity of compounds was determined by spectrometric measurement of mycelium growth. Inhibition of fungal growth was determined by comparing the absorbance values in wells containing the fungicides with the absorbance in control wells without fungicides.

[2] = tested on: Colletotrichum lindemuthianum; assay: Colletotrichum lindemuthianum in vitro cell test; format: cell-based; conditions: 144 h, 20 ppm of active ingredient, 6 days incubation, read-out: efficacy (inhibition of fungal growth)
Experimental: as §1, §2
A spore suspension of C. lindemuthianum was prepared and diluted to the desired spore density.
as §3, with “inhibit spores” for “inhibit spore”, “After 6” for “After 5”

[3] = tested on: Pseudomonas syringae pv. tomato; assay: Pseudomonas syringae pv. tomato in vitro cell test; format: cell-based; conditions: 20 ppm of active ingredient, 24 h incubation, read-out: efficacy (inhibition of bacteria growth)
In short: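 Compounds in 1% final DMSO were added to LB broth containing OD-adjusted bacterial suspension. After 24 h, absorbance measured growth, and inhibition was expressed relative to wells lacking active ingredient.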

[4] = tested on: Colletotrichum lindemuthianum; assay: In vivo preventive test on Colletotrichum lindemuthianum (Antrachnose on bean); conditions: 144 h, inoculation 72 h after spraying, evaluated 6 days after inoculation, read-out: efficacy; for pest or weed control at 500 ppm: 500 ppm of active ingredient; for pest or weed control at 31 ppm: 31 ppm of active ingredient
In short: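 Young bean plants sprayed preventively with compound in acetone/DMSO/Tween diluted in water, then spore-inoculated 72 h later. Incubation 24 h at 20° C./100% RH, then 5 days at 20° C./90% RH; scored 6 days post-inoculation as % efficacy (0% = solvent-treated control, 100% = no disease).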

[5] = tested on: Xanthomonas campestris pv. campestris; assay: In vivo preventive test on Xanthomonas campestris pv. campestris (black rot on cabbage); conditions: evaluated 8 or 10 days after inoculation, read-out: efficacy; for pest or weed control at 31 ppm: 31 ppm of active ingredient; for pest or weed control at 125 ppm: 125 ppm of active ingredient
In short: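 Young cabbage plants sprayed with compound in acetone/DMSO/Tween diluted in water; solvent-only controls. Leaves sprayed with bacterial suspension 72 h later, then held 8 or 10 days at 27° C and 95% relative humidity. Efficacy scored 8 or 10 days post-inoculation, 0% matching controls, 100% meaning no disease.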

Uromyces appendiculatus = assay: In vivo preventive test on Uromyces appendiculatus (bean rust); conditions: 240 h, evaluated 10 days after inoculation, read-out: efficacy; for pest or weed control at 125 ppm: 125 ppm of active ingredient; for pest or weed control at 500 ppm: 500 ppm of active ingredient
In short: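 Young bean plants sprayed with compound in acetone/DMSO/Tween diluted in water, inoculated 72 h later with U. appendiculatus spore suspension. Held 24 h at 20 °C, 100% RH, then 9 days at 20 °C, 70-80% RH. Efficacy scored 10 days post-inoculation versus solvent-treated controls (0% = control, 100% = no disease).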

[6] = LogP by HPLC on reversed phase columns (EEC directive 79/831 Annex V.A8); format: physicochemical
In short: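 LogP derived from retention time by linear interpolation against a C3–C16 alkan-2-one calibration series of known LogP. Measured by HPLC on reversed-phase columns following EEC 79/831 Annex V.A8. UV spectra over 200–400 nm at signal peaks gave lambda-max.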

[7] = reversed phase HPLC columns, method [a]: LC-UV, in an acidic range, with 0.1% formic acid in water and acetonitrile as eluent (linear gradient from 10% to 95% acetonitrile)
[8] = reversed phase HPLC columns, method [a]: LC-UV, acidic range, 0.1% formic acid in water and acetonitrile as eluent (linear gradient 10% to 95% acetonitrile)
[9] = reversed phase HPLC columns, given in the preparation examples, method not marked

Compound	fold induction at 75 ppm [1]	fold induction at 300 ppm [1]	inhibition at 20 ppm (Alternaria alternata)	inhibition at 20 ppm [2]	inhibition at 20 ppm [3]	pest or weed control at 500 ppm [4]	pest or weed control at 31 ppm [5]	pest or weed control at 125 ppm (Uromyces appendiculatus)	pest or weed control at 500 ppm (Uromyces appendiculatus)	chromatographic logP [6, 7]	pest or weed control at 31 ppm [4]	pest or weed control at 125 ppm [5]	chromatographic logP ([6]; method [a]: LC-UV, acidic range, 0.1% formic acid in water and acetonitrile as eluent (linear gradient 10% to 95% acetonitrile))	chromatographic logP [6, 8]	chromatographic logP [6, 9]
C[C@H](NC(=S)c1sc(Cl)c(Cl)c1Cl)C(=O)O [I.113]	> 2	> 2	≤ 30%	≤ 30%	≤ 30%	90 to 100%	80 to 89%	90 to 100%	90 to 100%	3.5	–	–	–	–	–
COC(=O)[C@H](CSC(=O)N(C)C)NC(=O)c1sc(Cl)c(Cl)c1Cl [I.142]	> 2	> 2	≤ 30%	–	≤ 30%	–	80 to 89%	90 to 100%	–	–	80 to 89%	90 to 100%	3.56	–	–
CCOC(=O)C(CC(F)(F)F)NC(=O)c1sc(Cl)c(Cl)c1Cl (stereo not shown) [I.048]	> 2	> 2	≤ 30%	≤ 30%	≤ 30%	80 to 89%	–	90 to 100%	90 to 100%	4.27	–	90 to 100%	–	–	–
CCOC(=O)C(C#N)NC(=O)c1sc(Cl)c(Cl)c1Cl (stereo not shown) [I.009]	> 2	> 2	≤ 30%	≤ 30%	≤ 30%	90 to 100%	90 to 100%	90 to 100%	90 to 100%	3.31	–	90 to 100%	–	–	–
COC(=O)[C@H](CC(N)=O)NC(=O)c1sc(Cl)c(Cl)c1Cl [I.015]	> 2	> 2	≤ 30%	≤ 30%	≤ 30%	–	90 to 100%	80 to 89%	–	2.16	–	–	–	–	–
COC(=O)C[C@H](NC(=O)c1sc(Cl)c(Cl)c1Cl)C(=O)OC [I.144]	> 2	> 2	≤ 30%	–	≤ 30%	–	80 to 89%	90 to 100%	–	–	80 to 89%	–	–	3.28	–
O=C(O)CNC(=S)c1sc(Cl)c(Cl)c1Cl [I.022, N-[(3,4,5-trichloro-2-thienyl)carbonothioyl]glycine]	> 2	–	≤ 30%	≤ 30%	≤ 30%	90 to 100%	–	–	90 to 100%	3.17	70 to 79%	–	–	–	3.17
COC(=O)C(Cc1c[nH]cn1)NC(=O)c1sc(Cl)c(Cl)c1Cl (stereo not shown) [I.012]	> 2	> 2	–	≤ 30%	≤ 30%	90 to 100%	80 to 89%	–	90 to 100%	1.5	–	–	–	–	–
COC(=O)[C@H](CCCNC(=N)N)NC(=O)c1sc(Cl)c(Cl)c1Cl [I.008]	> 2	> 2	≤ 30%	≤ 30%	≤ 30%	–	80 to 89%	70 to 79%	90 to 100%	1.73	–	–	–	–	–
CCOC(=O)C(CSC)NC(=O)c1sc(Cl)c(Cl)c1Cl (stereo not shown) [I.143]	> 2	> 2	≤ 30%	≤ 30%	≤ 30%	–	90 to 100%	90 to 100%	–	–	70 to 79%	80 to 89%	–	4.29	–
COC(=O)C(CC(F)F)NC(=O)c1sc(Cl)c(Cl)c1Cl (stereo not shown) [I.016]	> 2	> 2	≤ 30%	≤ 30%	≤ 30%	90 to 100%	90 to 100%	90 to 100%	90 to 100%	3.55	80 to 89%	–	–	–	–
C[C@H](NC(=O)c1sc(Cl)c(Cl)c1Cl)C(N)=O [I.119]	> 2	> 2	≤ 30%	≤ 30%	≤ 30%	90 to 100%	–	90 to 100%	90 to 100%	2.16	70 to 79%	–	–	–	–
CCOC(=O)C(CC(N)=O)NC(=O)c1sc(Cl)c(Cl)c1Cl (stereo not shown) [I.046]	> 2	> 2	≤ 30%	≤ 30%	≤ 30%	90 to 100%	90 to 100%	90 to 100%	90 to 100%	2.35	80 to 89%	90 to 100%	–	–	–
COC(=O)CNC(=S)c1sc(Cl)c(Cl)c1Cl [I.038, methyl N-[(3,4,5-trichloro-2-thienyl)carbonothioyl]glycinate]	–	> 2	≤ 30%	≤ 30%	≤ 30%	90 to 100%	80 to 89%	–	90 to 100%	4.05	90 to 100%	80 to 89%	–	–	4.05
